Test results as given in patent publication US20160214983A1, “3,7-DIAZABICYCLO[3.3.1]NONANE CARBOXAMIDES AS ANTITHROMBOTIC AGENTS” (COUNCIL OF SCIENTIFIC & INDUSTRIAL RESEARCH, priority 2013, published 2016).
Where “and” joins values, the source holds several entries; their conditions need not be identical. Identical values can stand only once.

Key:
[1] = system: collagen plus epinephrine induced pulmonary thromboembolism; experiment: Collagen-epinephrine induced pulmonary thromboembolism in mice; assay type: in vivo
Description: To assess the antithrombotic efficacy of compounds, mice were grouped into vehicle, aspirin and compound treated groups, and each group included ten animals. Pulmonary thromboembolism was induced by injecting a mixture of collagen (150 μg/ml) and adrenaline (50 μg/ml) into the tail vein to achieve final doses of collagen (1.5 mg/kg) and adrenaline (0.5 mg/kg) to induce hind limb paralysis or death.^11, 12 Number of test animals killed or paralyzed were evaluated (death/paralysis were employed as endpoint to evaluate antithrombotic agents). The percent protection was calculated by taking the ratio of number of test animals killed or paralyzed to that of total tested animals. Results have been reported as percentage protection, which represents protection against collagen and epinephrine induced thromboembolism and expressed as;
Percent Protection=[1−(Ptest/Pcontrol)]×100
Where, Ptest is the number of animals paralyzed/dead in test compound-treated group, and Pcontrol is the total number of animals paralyzed/dead in vehicle treated group. The percent protection refers to the number of animals in compound treated group that were prevented from paralysis/death.

[2] = system: human platelets; experiment: Collagen induced platelet aggregation in human platelets (in vitro); assay type: cell-based; details: compound concentration 30 μM, n = 3; for inhibition at 30 µM: Homo sapiens, Platelet
[3] = Mus musculus, po, 1 h, read-out: Protection (%)

CC(=O)Oc1ccccc1C(=O)O [Aspirin, reference compound]
inhibition in vivo at 170 µM, 170 µmol/kg [1, 3]: 40% | Protection (%) ([1]; mice, Aspirin at 170 μm (text: 170 μM/kg)): 40 (at 170 μm) % and 40 (at %

CC(C)(C)OC(=O)N1CC2CC(C1)CN(C(=O)[C@@H]1CCC(=O)N1Cc1ccccc1)C2 [Compound 1a, 7-(1-Benzyl-5-oxo-pyrrolidine-2-carbonyl)-3,7-diaza-bicyclo[3.3.1]nonane-3-carboxylic acid tert-butyl ester]
inhibition in vivo at 30 µM, 30 µmol/kg [1, 3]: 40% | inhibition at 30 µM [2]: 6 ± 14%

CC(C)(C)OC(=O)N1CC2CC(C1)CN(C(=O)[C@@H]1CCC(=O)N1Cc1ccccc1Br)C2 [Compound 1b, 7-[1-(2-Bromo-benzyl)-5-oxo-pyrrolidine-2-carbonyl]-3,7-diaza-bicyclo[3.3.1]nonane-3-carboxylic acid tert-butyl ester]
inhibition in vivo at 30 µM, 30 µmol/kg [1, 3]: 50% | Inhibition (%) of collagen induced platelet aggregation [2]: Ns

O=C([C@@H]1CCC(=O)N1Cc1ccccc1)N1CC2CC(CN(Cc3ccccc3)C2)C1 [Compound 1c, 1-Benzyl-5-(7-benzyl-3,7-diaza-bicyclo[3.3.1]nonane-3-carbonyl)-pyrrolidin-2-one]
inhibition in vivo at 30 µM, 30 µmol/kg [1, 3]: 30% | inhibition at 30 µM [2]: 44 ± 13%

Cc1ccc(CN2C(=O)CC[C@H]2C(=O)N2CC3CC(CN(C(=O)OC(C)(C)C)C3)C2)cc1 [Compound 1e, 7-[1-(4-Methyl-benzyl)-5-oxo-pyrrolidine-2-carbonyl]-3,7-diaza-bicyclo[3.3.1]nonane-3-carboxylic acid tert-butyl ester]
inhibition in vivo at 30 µM, 30 µmol/kg [1, 3]: 40% | inhibition at 30 µM [2]: 25 ± 9%

Cc1ccc(CN2C(=O)CC[C@H]2C(=O)N2CC3CC(CN(Cc4ccccc4)C3)C2)cc1 [Compound 1f, 5-(7-Benzyl-3,7-diaza-bicyclo[3.3.1]nonane-3-carbonyl)-1-(4-methyl-benzyl)-pyrrolidin-2-one]
inhibition in vivo at 30 µM, 30 µmol/kg [1, 3]: 25% | inhibition at 30 µM [2]: 7 ± 7%

O=C([C@@H]1CCC(=O)N1Cc1c(Cl)cccc1Cl)N1CC2CC(CN(Cc3ccccc3)C2)C1 [Compound 1g, (5S)-5-(7-benzyl-3,7-diazabicyclo[3.3.1]nonane-3-carbonyl)-1-(2,6-dichlorobenzyl)pyrrolidin-2-one]
inhibition in vivo at 30 µM, 30 µmol/kg [1, 3]: 40% | inhibition at 30 µM [2]: 57 to 86%

O=C([C@@H]1CCC(=O)N1Cc1ccc(Cl)cc1)N1CC2CC(CN(Cc3ccccc3)C2)C1 [Compound 1h]
inhibition in vivo at 30 µM, 30 µmol/kg [1, 3]: 30% | inhibition at 30 µM [2]: 57 to 86%

Cc1ccc(S(=O)(=O)N2C(=O)CC[C@H]2C(=O)N2CC3CC(CN(Cc4ccccc4)C3)C2)cc1 [Compound 1i, (5S)-5-(7-benzyl-3,7-diazabicyclo[3.3.1]nonane-3-carbonyl)-1-tosylpyrrolidin-2-one]
inhibition in vivo at 30 µM, 30 µmol/kg [1, 3]: 30% | inhibition at 30 µM [2]: 29 ± 1%

CC(C)(C)OC(=O)N1CC2CC(C1)CN(C(=O)[C@@H]1CCC(=O)N1Cc1ccc(C#N)cc1)C2 [Compound 1j, tert-butyl-7-((S)-1-(4-cyanobenzyl)-5-oxopyrrolidine-2-carbonyl)3,7diazabicyclo[3.3.1]nonane-3-carboxylate]
inhibition in vivo at 30 µM, 30 µmol/kg [1, 3]: 55% | inhibition at 30 µM [2]: 11 ± 3%

CC(C)(C)OC(=O)N1CC2CC(C1)CN(C(=O)[C@@H]1CCC(=O)N1Cc1ccc(Cl)cc1)C2 [Compound 1k, tert-butyl 7-((S)-1-(4-chlorobenzyl)-5-oxopyrrolidine-2-carbonyl)-3,7-diazabicyclo [3.3.1]nonane-3-carboxylate]
inhibition in vivo at 30 µM, 30 µmol/kg [1, 3]: 30% | inhibition at 30 µM [2]: 6 ± 11%

CC(C)(C)OC(=O)N1CC2CC(C1)CN(C(=O)[C@@H]1CCC(=O)N1Cc1c(Cl)cccc1Cl)C2 [Compound 1l, tert-butyl 7-((S)-1-(2,6-dichlorobenzyl)-5-oxopyrrolidine-2-carbonyl)-3,7-diazabicyclo [3.3.1]nonane-3-carboxylate]
inhibition in vivo at 30 µM, 30 µmol/kg [1, 3]: 30% | inhibition at 30 µM [2]: 3 ± 3%

COc1ccc(CN2C(=O)CC[C@H]2C(=O)N2CC3CC(CN(C(=O)OC(C)(C)C)C3)C2)cc1 [Compound 1m, tert-butyl-7-((S)-1-(4-methoxybenzyl)-5-oxopyrrolidine-2-carbonyl)-3,7-diazabicyclo[3.3.1]nonane-3-carboxylate]
inhibition in vivo at 30 µM, 30 µmol/kg [1, 3]: 45% | inhibition at 30 µM [2]: 10 ± 3%

O=C([C@@H]1CCC(=O)N1Cc1ccc(Br)cc1)N1CC2CC(CN(Cc3ccccc3)C2)C1 [Compound 1o, (5S)-5-(7-(4-benzyl)-3,7-diazabicyclo[3.3.1]nonane-3-carbonyl)-1-(4-bromobenzyl)pyrrolidin-2-one]
inhibition in vivo at 30 µM, 30 µmol/kg [1, 3]: 40% | inhibition at 30 µM [2]: 57 to 86%

COc1ccc(CN2C(=O)CC[C@H]2C(=O)N2CC3CC(CN(Cc4ccccc4)C3)C2)cc1 [Compound 1p]
inhibition in vivo at 30 µM, 30 µmol/kg [1, 3]: 30% | inhibition at 30 µM [2]: 10 ± 4%

O=C(c1ccccc1)N1CC2CC(C1)CN(C(=O)[C@@H]1CCC(=O)N1Cc1ccccc1Br)C2 [Compound 1q, 5-(7-Benzoyl-3,7-diaza-bicyclo[3.3.1]nonane-3-carbonyl)-1-(2-bromo-benzyl)-pyrrolidin-2-one]
inhibition in vivo at 30 µM, 30 µmol/kg [1, 3]: 60% | inhibition at 30 µM [2]: 25.6 ± 3.55%

Cc1ccc(S(=O)(=O)N2CC3CC(CN(C(=O)[C@@H]4CCC(=O)N4Cc4ccccc4Br)C3)C2)cc1 [Compound 1r, 1-(2-Bromo-benzyl)-5-[7-(toluene-4-sulphonyl)-3,7-diaza-bicyclo[3.3.1]nonane-3-carbonyl]-pyrrolidin-2-one]
inhibition in vivo at 30 µM, 30 µmol/kg [1, 3]: 55% | inhibition at 30 µM [2]: 16.8 ± 5.66%

Cc1ccc(CN2C(=O)CC[C@H]2C(=O)N2CC3CC(CN(C(=O)c4ccccc4)C3)C2)cc1 [Compound 1s, 5-(7-Benzoyl-3,7-diaza-bicyclo[3.3.1]nonane-3-carbonyl)-1-(4-methyl-benzyl)-pyrrolidin-2-one]
inhibition in vivo at 30 µM, 30 µmol/kg [1, 3]: 40% | inhibition at 30 µM [2]: 20.5 ± 7.5%

Cc1ccc(CN2C(=O)CC[C@H]2C(=O)N2CC3CC(C2)CN(S(=O)(=O)c2ccc(C)cc2)C3)cc1 [Compound 1t, 1-(4-Methyl-benzyl)-5-[7-(toluene-4-sulphonyl)-3,7-diaza-bicyclo[3.3.1]nonane-3-carbonyl]-pyrrolidin-2-one]
inhibition in vivo at 30 µM, 30 µmol/kg [1, 3]: 40% | inhibition at 30 µM [2]: 37.5 ± 10.5%

Cc1ccc(CN2C(=O)CC[C@H]2C(=O)N2CC3CC(CN(Cc4ccccc4Br)C3)C2)cc1 [Compound 1u, (5S)-5-(2-bromobenzyl-3,7-diazabicyclo[3.3.1]nonane-3-carbonyl)-1-(4-methylbenzyl)pyrrolidin-2-one]
inhibition in vivo at 30 µM, 30 µmol/kg [1, 3]: 30% | inhibition at 30 µM [2]: 57 to 86%

Cc1ccc(CN2C(=O)CC[C@H]2C(=O)N2CC3CC(CN(Cc4ccc(Br)cc4)C3)C2)cc1 [Compound 1v, (5S)-5-(7-(4-bromobenzyl)-3,7-diazabicyclo[3.3.1]nonane-3-carbonyl)-1-(4-methylbenzyl)pyrrolidin-2-one]
inhibition in vivo at 30 µM, 30 µmol/kg [1, 3]: 50% | inhibition at 30 µM [2]: 57 to 86%

Cc1ccc(CN2C(=O)CC[C@H]2C(=O)N2CC3CC(CN(Cc4ccc(Cl)cc4)C3)C2)cc1 [Compound 1w, (5S)-5-(7-(4-chlorobenzyl)-3,7-diazabicyclo[3.3.1]nonane-3-carbonyl)-1-(4-methylbenzyl)pyrrolidin-2-one]
inhibition in vivo at 30 µM, 30 µmol/kg [1, 3]: 35% | inhibition at 30 µM [2]: 57 to 86%

CC(C)[C@H](NC(=O)OCc1ccccc1)C(=O)N1CC2CC(CN(Cc3ccccc3)C2)C1 [Compound 1x, Benzyl(2S)-1-(7-benzyl-3,7-diazabicyclo[3.3.1]nonan-3-yl)-3-methyl-1-oxobutan-2-yl carbamate]
inhibition in vivo at 30 µM, 30 µmol/kg [1, 3]: 20% | inhibition at 30 µM [2]: 18 ± 4%
